Where two headings read alike, the source gives them in different places.

Here are results for 34 compounds from patent US4556660A, “N-(Bicyclic heterocyclyl)-4-piperidinamines” (Janssen Pharmaceutica N.V., priority 1983, dated 1985).

Test [1] relates to compound 48/80-induced lethality. The experiment in a line: Protection of rats from compound 48/80-induced lethality. It is filed as in vivo, Male rats of an inbred Wistar strain. The following applies: Rattus norvegicus, 4 h, read-out: compound 48/80 lethality test rats-ED50. As for the experimental part:
Protection of rats from compound 48/80-induced lethality
The protection from compound 48/80-induced lethal circulatory collapse appears to be a simple way of evaluating quantitatively the antihistaminic activity of test compounds. Male rats of an inbred Wistar strain, weighing 240-260 g were used in the experiment. After overnight starvation the rats were transferred to conditioned laboratories (temp.=21±1° C., relative humidity-65±5%).
The rats were treated subcutaneously or orally with a test compound or with the solvent (NaCl solution, 0.9%). […] Survival after 4 hours is therefore considered to be a safe criterion of a protective effect of drug administration.
The ED50 -values of the compounds of formula (I) and the intermediates of formula (XVIII) are listed in the first column of table 1 and table 2. Said ED50 -values are the values in mg/kg body weight at which the tested compounds protect 50% of the tested animals against compound 48/80-induced lethality.

Test [2] concerns serotonin; compound 48/80-induced gastric lesions. Description: Antagonistic activity on the effects of serotonin in the gastric lesion test (lesions induced by compound 48/80). It is filed as in vivo, Male rats of a Wistar inbred strain. As for the experimental part:
Antagonistic activity on the effects of serotonin in the gastric lesion test
Male rats of a Wistar inbred strain, weighing 220-250 g, were starved overnight, water being available ad libitum. The test compounds were administered orally as a solution or as a suspension in aqueous medium. A control rat and a "blank" rat received the test compound. One hour later 5-[4-(diphenylmethyl)-1-piperazinylmethyl]-1-methyl-1H-benzimidazole-2-methanol was administered subcutaneously to all rats at the dose of 2.5 mg/kg.
Four hours after the intravenous injection of compound 48/80, the rats were decapitated and the stomachs were removed. Subsequently the stomachs were inspected for distension and contents (blood, fluid, food) and thoroughly rinsed. The macroscopic lesions were scored from 0 to +++, 0 corresponding to complete absence of visible lesions and the highest score corresponding to reddish rough patches covering more than half the glandular area.

Setting [3] is: Rattus norvegicus, po; read-out: gastric lesion test ED50.
[4] abbreviates: Rattus norvegicus, po, read-out: gastric lesion test ED50.

Consider `Fc1ccc(Cn2c(NC3CCN(CCNc4ncccn4)CC3)nc3ncccc32)cc1` [Compound 25, 1-[(4-fluorophenyl)methyl]-N-[1-[2-[(2-pyrimidinyl)amino]ethyl]-4-piperidinyl]-1H-imidazo[4,5-b]pyridin-2-amine], for which the values for the ED50 in test [1] and in test [2] (setting [3]) were 0.02 mg/kg and 0.16 mg/kg, respectively.

As for `OCCN1CCC(Nc2nc3ncccc3n2Cc2ccc(F)cc2)CC1` [CH2 CH2 OH 4-FC6 H4 CH2 -- 4 base], the ED50 in test [1] worked out at 0.01 mg/kg; in test [2] (setting [3]), 0.63 mg/kg.

Regarding `CC(=O)N(CCN1CCC(Nc2nc3ccccc3n2Cc2ccc(F)cc2)CC1)c1ncccn1.O=C(O)/C=C/C(=O)O.O=C(O)/C=C/C(=O)O` [Compound 99, N-[2-[4-[[1-[(4-fluorophenyl)methyl]-1H-benzimidazol-2-yl]amino]-1-piperidinyl]ethyl]-N-(2-pyrimidinyl)acetamide (E)-2-butenedioate (1:2)], the results for the ED50 in test [1] and in test [2] (setting [3]) were 0.04 mg/kg and 0.63 mg/kg, respectively.

Turning to `c1cnc(NCCN2CCC(Nc3nc4cccnc4n3Cc3ccco3)CC2)nc1` [Compound 28, 3-(2-furanylmethyl)-N-[1-[2-(2-pyrimidinylamino)ethyl]-4-piperidinyl]-3H-imidazo[4,5-b]pyridin-2-amine], the values for the ED50 in test [1] and in test [2] (setting [3]) were 0.04 mg/kg and 0.63 mg/kg, respectively.

`NC(=O)c1cccnc1NCCN1CCC(Nc2nc3ccccc3n2Cc2ccc(F)cc2)CC1` [Compound 36]: the values for the ED50 in test [1] and in test [2] (setting [3]) were 0.08 mg/kg and 0.16 mg/kg, respectively.

For the compound `O.O=c1nc(SCCN2CCC(Nc3nc4ccccc4n3Cc3ccc(F)cc3)CC2)[nH]c2ccccc12` [Compound 92, 2-[2-[4-[[1-[(4-fluorophenyl)methyl]-1H-benzimidazol-2-yl]amino]-1-piperidinyl]ethylthio]-4(1H)-quinazolinone monohydrate], the ED50 in test [1] is 0.31 mg/kg; in test [2] (setting [3]), 2.5 mg/kg.

For `CN(CCN1CCC(Nc2nc3ccccc3n2Cc2ccc(F)cc2)CC1)c1ccc(Cl)cn1` [Compound 56], the ED50 in test [1] came out at 0.31 mg/kg; in test [2] (setting [3]), 1.25 mg/kg.

As for `Clc1ccc(Cn2c(NC3CCN(CCNc4ncccn4)CC3)nc3ccccc32)cc1` [Compound 68, 1-[(4-chlorophenyl)methyl]-N-[1-[2-(2-pyrimidinylamino)ethyl]-4-piperidinyl]-1H-benzimidazol-2-amine], the ED50 in test [1] stood at 0.16 mg/kg; in test [2] (setting [3]), 2.5 mg/kg.

Regarding `Cc1ccc(Cn2c(NC3CCN(CCNc4ncccn4)CC3)nc3ccccc32)cc1` [Compound 67, 1-[(4-methylphenyl)methyl]-N-[1-[2-[(2-pyrimidinyl)amino]ethyl]-4-piperidinyl]-1H-benzimidazol-2-amine], the ED50 in test [1] came to 0.16 mg/kg; in test [2] (setting [4]) it was 0.63 mg/kg.

As to `Fc1ccc(Cn2c(NC3CCN(CCOc4ccc5ccccc5n4)CC3)nc3ccccc32)cc1` [Compound 77, 1-[(4-fluorophenyl)methyl]-N-[1-[2-(2-quinolinyloxy)ethyl]-4-piperidinyl]-1H-benzimidazol-2-amine], the results for the ED50 in test [1] and in test [2] (setting [3]) were 1.25 mg/kg and 2.5 mg/kg, respectively.

As for `Nc1cc(NCCN2CCC(Nc3nc4ccccc4n3Cc3ccc(F)cc3)CC2)nc(N)n1` [Compound 34], the ED50 in test [1] was 0.08 mg/kg; in test [2] (setting [3]), 0.16 mg/kg.

`c1ccc(Cn2c(NC3CCN(CCNc4ncccn4)CC3)nc3cccnc32)nc1` [Compound 27, 3-(2-pyridinylmethyl)-N-[1-[2-(2-pyrimidinylamino)ethyl]-4-piperidinyl]3H-imidazo[4,5-b]pyridin-2-amine (E)-2-butenedioate (2:3)]: the ED50 stood at 0.04 mg/kg in test [1] and 2.5 mg/kg in test [2] (setting [3]).

Consider `c1ccc(Cn2c(NC3CCN(CCNc4ncccn4)CC3)nc3ccccc32)nc1` [Compound 15], for which the figures for the ED50 in test [1] and in test [2] (setting [3]) were 0.04 mg/kg and 0.63 mg/kg, respectively.

In the case of `O=[N+]([O-])c1cc[n+]([O-])cc1NCCN1CCC(Nc2nc3ccccc3n2Cc2ccc(F)cc2)CC1` [Compound 14], the ED50 in test [1] is 0.04 mg/kg; in test [2] (setting [3]) it was 1.25 mg/kg.

On to `Fc1ccc(Cn2c(NC3CCN(C4CCCN(c5ncccn5)C4)CC3)nc3ccccc32)cc1` (centres unmarked) [Compound 12], for which the ED50 in test [1] is 1.25 mg/kg; in test [2] (setting [3]), 2.5 mg/kg.

For the compound `Fc1ccc(Cn2c(NC3CCN(C4CCN(c5ccccn5)CC4)CC3)nc3ccccc32)cc1` [Compound 97, N-[1-[(4-fluorophenyl)methyl]-1H-benzimidazol-2-yl]-1'-(2-pyridinyl)-[1,4'-bipiperidin]-4-amine (E)-2-butenedioate (2:3) monohydrate], the ED50 amounted to 0.63 mg/kg in test [1] and 2.5 mg/kg in test [2] (setting [3]).

In the case of `CN(CCN1CCC(Nc2nc3ccccc3n2Cc2ccc(F)cc2)CC1)c1ncccn1` [Compound 10], the ED50 in test [1] was 0.08 mg/kg; in test [2] (setting [3]), 0.63 mg/kg.

On to `Brc1ccc(NCCN2CCC(Nc3nc4ccccc4n3Cc3ccccc3)CC2)nc1` [Compound 49], for which the values for the ED50 in test [1] and in test [2] (setting [3]) were 0.31 mg/kg and 2.5 mg/kg, respectively.

As to `Fc1ccc(Cn2c(NC3CCN(CCNc4ccc(Br)cn4)CC3)nc3ccccc32)cc1` [Compound 39], the ED50 in test [1] amounted to 0.31 mg/kg; in test [2] (setting [3]) it was 2.5 mg/kg.

`NC(=O)c1cccnc1NCCN1CCC(Nc2nc3ccccc3n2Cc2ccco2)CC1` [Compound 46]: the figures for the ED50 in test [1] and in test [2] (setting [3]) were 0.04 mg/kg and 0.63 mg/kg, respectively.

For the compound `COc1ccc2c(c1)nc(NC1CCN(CCNc3ncccn3)CC1)n2Cc1ccc(F)cc1`, the figures for the ED50 in test [1] and in test [2] (setting [3]) were 1.25 mg/kg and 2.5 mg/kg, respectively.

Take `Fc1ccc(Cn2c(NC3CCN(CCCCCNc4ncccn4)CC3)nc3ccccc32)cc1` [Compound 22]: the ED50 was 0.31 mg/kg in test [1] and 0.08 mg/kg in test [2] (setting [4]).

With `Cl.Cl.Cl.Nc1cccnc1NCCN1CCC(Nc2nc3ccccc3n2Cc2ccc(F)cc2)CC1` [Compound 93, N^2-[2-[4-[[1-[(4-fluorophenyl)methyl] -1H-benzimidazol-2-yl]amino]-1-piperidinyl]ethyl]-2,3-pyridinediamine trihydrochloride], the ED50 in test [1] worked out at 0.08 mg/kg; in test [2] (setting [3]), 0.31 mg/kg.

In the case of `Cc1cc(NCCN2CCC(Nc3nc4ccccc4n3Cc3ccc(F)cc3)CC2)nc(Cl)n1` [Compound 61, N-[1-[2-[(2-chloro-6-methyl-4-pyrimidinyl)amino]ethyl]-4-piperidinyl]-1-[(4-fluorophenyl)methyl]-1H-benzimidazol-2-amine], the ED50 in test [1] was 0.08 mg/kg; in test [2] (setting [3]) it was 2.5 mg/kg.

As to `Oc1ccc2c(c1)nc(NC1CCN(CCNc3ncccn3)CC1)n2Cc1ccc(F)cc1`, the results for the ED50 in test [1] and in test [2] (setting [3]) were 0.16 mg/kg and 2.5 mg/kg, respectively.

With `NC(=O)c1cccnc1NCCN1CCC(Nc2nc3cccnc3n2Cc2ccc(F)cc2)CC1` [Compound 24, 2-[[2-[4-[[3-[(4-fluorophenyl)methyl]-3H-imidazo[4,5-b]pyridin-2-yl]amino]-1-piperidinyl]ethyl]amino]-3-pyridinecarboxamide], the ED50 in test [1] and in test [2] (setting [4]) was 0.04 mg/kg throughout.

Turning to `O=c1nc(NCCN2CCC(Nc3nc4ccccc4n3Cc3ccc(F)cc3)CC2)[nH]c2ccccc12` [Compound 88, 2-[[2-[4-[[1-[(4-fluorophenyl)methyl]-1H-benzimidazol-2-yl]amino]1-piperidinyl]ethyl]amino]-4(1H)-quinazolinone], the ED50 is 0.63 mg/kg in test [1] and 2.5 mg/kg in test [2] (setting [3]).

Take `COc1ccc2nc(NC3CCN(CCNc4ncccn4)CC3)n(Cc3ccc(F)cc3)c2c1`: the ED50 in test [1] was 1.25 mg/kg; in test [2] (setting [3]) it was 2.5 mg/kg.

`Oc1ccc(Cn2c(NC3CCN(CCNc4ncccn4)CC3)nc3ccccc32)cc1` [Compound 73, 4-[[2-[[1-[2-(2-pyrimidinylamino)ethyl]-4-piperidinyl]amino]-1H-benzimidazol-1-yl]methyl]phenol]: the ED50 in test [1] and in test [2] (setting [3]) was 2.5 mg/kg each time.

For the compound `Fc1ccc(Cn2c(NC3CCN(CCNc4cnccn4)CC3)nc3ccccc32)cc1` [Compound 33], the values for the ED50 in test [1] and in test [2] (setting [3]) were 0.16 mg/kg and 2.5 mg/kg, respectively.

Take `Fc1ccc(Cn2c(NC3CCN(CCNc4ncccc4Cl)CC3)nc3ccccc32)cc1` [Compound 40]: the values for the ED50 in test [1] and in test [2] (setting [3]) were 0.16 mg/kg and 0.31 mg/kg, respectively.

With `N#CCN1CCC(Nc2nc3ncccc3n2Cc2ccc(F)cc2)CC1` [Intermediate 79], the ED50 in test [1] stood at 0.16 mg/kg; in test [2] (setting [3]) it was 0.63 mg/kg.

For `Fc1ccc(Cn2c(NC3CCN(CCNC(=S)Nc4cccnc4)CC3)nc3ccccc32)cc1` [Compound 104, N-[2-[4-[[1-[(4-fluorophenyl)methyl]-1H-benzimidazol-2-yl]amino]-1-piperidinyl]ethyl]-N'-(3-pyridinyl)thiourea], the ED50 in test [1] and in test [2] (setting [3]) was 0.63 mg/kg throughout.

As to `Nc1cccnc1NC(=S)NCCN1CCC(Nc2nc3ccccc3n2Cc2ccc(F)cc2)CC1` [Compound 107, N-(3-amino-2-pyridinyl)-N'-[2-[4-[[1-[(4-fluorophenyl)methyl]-1H-benzimidazol-2-yl]amino]-1-piperidinyl]ethyl]thiourea], the results for the ED50 in test [1] and in test [2] (setting [3]) were 0.16 mg/kg and 0.31 mg/kg, respectively.
